Source: US5646159A (priority 1994, dated 1997)
Structures can show the parent of a compound that is named as a salt.

Tests used:
[1] = system: leukemia and tumor; details: Wall 1969; cited from earlier work
[2] = physiological pH, 7.2; Burke et al. 1993; cited from earlier work
[3] = background statement; cited from earlier work
[4] = system: P388 leukemia; details: Wall 1983; cited from earlier work
[5] = system: L-1210 leukemia; assay: L-1210 Life Prolongation Assay; type: in vivo, mice
Excerpt: L-1210 Life Prolongation Assay^a
^a Intraperitoneal transplants.
^b Q04DX02 = ip injection on days 1 and 5.
Q04HX02 = iv drug dosing on hours 1 and 5.
^c % TC = (median survival time of treated/control animals) ×
^d log of initial tumor cell population minus log of tumor cell
population at the end of treatment. […]

[6] = Toxicity by weight loss in test animals (Protocol 4; toxic = weight loss of ≥4.0 grams); toxic dose; type: in vivo, mice
Excerpt: By "non-toxic", as used herein with reference to the ester compounds of the present invention, is meant a compound which is not toxic according to Protocal 4, section 4.301(b)(3) where toxicity is defined as a weight loss of ≥4.0 grams as reported in R. I. Geran, N. H. Greenberg, M. M. MacDonald, A. M. Schumacher and B. J. Abbott, Cancer Chemotherapy Reports, Part 3, Vol. 3, No. 2, September 1972.

[7] = target: T1, topoisomerase I (Bos taurus, UniProt F1MN93); assay: Cleavable complex assay (topoisomerase I inhibition); type: biochemical; details: S.E. in own column, read-out: IC50, minimum drug concentration that inhibited the cleavable complex formation by 50%
T1 sequence (F1MN93 1-767): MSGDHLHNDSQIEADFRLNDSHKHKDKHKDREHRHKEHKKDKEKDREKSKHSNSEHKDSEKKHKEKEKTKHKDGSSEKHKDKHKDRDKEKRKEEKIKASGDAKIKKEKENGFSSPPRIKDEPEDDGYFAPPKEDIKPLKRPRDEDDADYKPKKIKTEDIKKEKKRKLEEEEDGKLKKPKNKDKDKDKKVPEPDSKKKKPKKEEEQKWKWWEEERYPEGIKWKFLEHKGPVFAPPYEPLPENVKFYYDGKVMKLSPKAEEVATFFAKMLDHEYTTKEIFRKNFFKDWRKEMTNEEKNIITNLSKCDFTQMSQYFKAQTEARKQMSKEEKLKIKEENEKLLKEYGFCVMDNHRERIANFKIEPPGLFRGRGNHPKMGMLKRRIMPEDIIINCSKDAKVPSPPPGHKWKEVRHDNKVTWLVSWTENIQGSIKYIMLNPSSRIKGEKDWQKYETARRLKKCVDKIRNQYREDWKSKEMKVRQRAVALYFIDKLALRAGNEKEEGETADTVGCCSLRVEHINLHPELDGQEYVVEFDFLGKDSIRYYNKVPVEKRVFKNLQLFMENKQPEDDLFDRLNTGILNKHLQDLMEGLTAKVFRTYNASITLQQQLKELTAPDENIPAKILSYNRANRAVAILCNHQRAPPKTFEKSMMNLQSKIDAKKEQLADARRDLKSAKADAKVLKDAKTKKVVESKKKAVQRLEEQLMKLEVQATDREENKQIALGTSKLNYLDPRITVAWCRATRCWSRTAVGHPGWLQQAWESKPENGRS
Excerpt: This relaxation is brought about by breakage of one of the DNA strands in the formation of a covalent topoisomerase I-DNA complex.

[8] = at highest active dose, iv, Q04HX02 (hours 1 and 5)
[9] = iv, Q04HX02 (iv drug dosing on hours 1 and 5), intraperitoneal transplants
[10] = ip, Q04DX02 (ip injection on days 1 and 5), intraperitoneal transplants
[11] = at highest active dose, ip, Q04DX02 (days 1 and 5)

SMILES: CCC1(OC(C)=O)C(=O)OCc2c1cc1n(c2=O)Cc2cc3ccccc3nc2-1 (stereo not drawn) [CPT-20α-acetate]
- antileukemia and antitumor activity [1]: inactive

SMILES: CC[C@@]1(O)C(=O)OCc2c1cc1n(c2=O)Cc2cc3ccccc3nc2-1 [camptothecin, Camptothecin]
- lactone ring opening [2]: opens to a physiologically inactive open form
- water solubility [3]: water insoluble
- activity in the P388 leukemia assay [4]: High activity

SMILES: CCC1(OC(=O)CN)C(=O)OCc2c1cc1n(c2=O)Cc2cc3cc(N)ccc3nc2-1 (racemic) [10-amino-20-glycinyl-(20RS)-CPT.HCl, 10-amino-20-O-glycinyl-(20RS)-CPT·HCl]
- % T/C = (median survival time of treated/control animals) × 100 [5, 8]: 225%
- KE, log of initial tumor cell population minus log of tumor cell population at the end of treatment ([5]; iv, Q04HX02 (hours 1 and 5)): > 5.97
- active dose range ([5]; iv, Q04HX02 (hours 1 and 5)): 1.25 to 20 mg/kg
- cures ([5]; iv, Q04HX02 (hours 1 and 5)): 0
- highest active dose [5, 9]: 20 mg/kg
- toxic dose (not toxic at dose) ([6]; iv, Q04HX02 (hours 1 and 5)): NT at 20

SMILES: CCC1(O)C(=O)OCc2c1cc1n(c2=O)Cc2cc3cc(N)ccc3nc2-1 (racemic) [10-amino-(20RS)-CPT, reference compound]
- % T/C = (median survival time of treated/control animals) × 100 ([5]; ip): 365%
- KE, log of initial tumor cell population minus log of tumor cell population at the end of treatment ([5]; ip, Q04DX02 (days 1 and 5)): 5.97
- active dose range ([5]; ip, Q04DX02 (days 1 and 5)): 1.35 to 3.74 mg/kg
- cures ([5]; ip, Q04DX02 (days 1 and 5)): 3/6
- highest active dose [5, 10]: 3.75 mg/kg
- toxic dose ([6]; ip, Q04DX02 (days 1 and 5)): 6.25 mg/kg

SMILES: CCC1C(=O)OCc2c1cc1n(c2=O)Cc2cc3ccccc3nc2-1 (centres unmarked) [20-desoxy-CPT]
- antileukemia and antitumor activity [1]: inactive

SMILES: CC[C@@]1(O)C(=O)OCc2c1cc1n(c2=O)Cc2cc3c(N)cccc3nc2-1 [9-amino-(20S)-CPT, reference compound]
- KE, log of initial tumor cell population minus log of tumor cell population at the end of treatment ([5]; ip, Q04DX02 (days 1 and 5)): 4.8
- active dose range ([5]; ip, Q04DX02 (days 1 and 5)): 5.3 to 12 mg/kg
- cures ([5]; ip, Q04DX02 (days 1 and 5)): 1/6
- highest active dose [5, 10]: 12 mg/kg
- % T/C = (median survival time of treated/control animals) × 100 ([5]; mouse, in vivo, ip): 250%
- toxic dose ([6]; ip, Q04DX02 (days 1 and 5)): 10 mg/kg

SMILES: CCC1(O)C(=O)OCc2c1cc1n(c2=O)Cc2cc3cc4c(cc3nc2-1)OCO4 (racemic) [10,11-(methylenedioxy)-(20RS)-CPT, 10,11-methylenedioxy-20(RS)-camptothecin, reference compound]
- % T/C = (median survival time of treated/control animals) × 100 [5, 11]: 325%
- KE, log of initial tumor cell population minus log of tumor cell population at the end of treatment ([5]; ip, Q04DX02 (days 1 and 5)): 5.97
- active dose range ([5]; ip, Q04DX02 (days 1 and 5)): 2 to 4 mg/kg
- cures ([5]; ip, Q04DX02 (days 1 and 5)): 2/6
- highest active dose [5, 10]: 2 mg/kg
- toxic dose ([6]; ip, Q04DX02 (days 1 and 5)): 8.0 mg/kg

SMILES: CCC1(OC(=O)CN)C(=O)OCc2c1cc1n(c2=O)Cc2cc3cc4c(cc3nc2-1)OCO4 (racemic) [10,11-MDO-20-O-glycinyl-(20RS)-CPT·HCl]
- IC50 [7]: 0.43 µM
- % T/C = (median survival time of treated/control animals) × 100 ([5]; iv): 236%
- KE, log of initial tumor cell population minus log of tumor cell population at the end of treatment ([5]; iv, Q04HX02 (hours 1 and 5)): 5.97
- active dose range ([5]; iv, Q04HX02 (hours 1 and 5)): 1.25 to 20 mg/kg
- cures ([5]; iv, Q04HX02 (hours 1 and 5)): 3/6
- highest active dose [5, 9]: 10 mg/kg
- toxicity in words ([6]; administered at 20 mg/kg): non-toxic
- greater amount of the ester that can be administered than the parent compound ([6]; ester vs parent 10,11-methylenedioxy-20(RS)-camptothecin): 10 fold
- toxic dose (not toxic at dose) ([6]; iv, Q04HX02 (hours 1 and 5)): NT at 20

SMILES: CCC1(OC(=O)CN)C(=O)OCc2c1cc1n(c2=O)Cc2cc3c(N)cccc3nc2-1 (racemic) [9-amino-20-glycinyl-(20RS)-CPT.HCl, 9-amino-20-O-glycinyl-(20RS)-CPT·HCl]
- % T/C = (median survival time of treated/control animals) × 100 [5, 11]: 132%
- % T/C = (median survival time of treated/control animals) × 100 [5, 8]: 168%
- highest active dose ([5]; mouse, in vivo): 5 mg/kg
- KE, log of initial tumor cell population minus log of tumor cell population at the end of treatment ([5]; mouse, in vivo, ip): -1.00
- active dose range ([5]; mouse, in vivo, ip): 10 mg/kg
- cures ([5]; mouse, in vivo, ip): 0
- highest active dose ([5]; mouse, in vivo, ip): 10 mg/kg
- KE, log of initial tumor cell population minus log of tumor cell population at the end of treatment ([5]; mouse, in vivo, iv): 1.67
- active dose range ([5]; mouse, in vivo, iv): 2.5 to 5.0 mg/kg
- cures ([5]; mouse, in vivo, iv): 1/6
- toxic dose (not toxic at dose) ([6]; ip, Q04DX02 (days 1 and 5)): NT^e at 10
- toxic dose (not toxic at dose) ([6]; iv, Q04HX02 (hours 1 and 5)): NT at 5
